Where a name gives a salt, the structure may show the parent alone.
Each compound was assayed against ROCK2 (Homo sapiens (Human), UniProt O75116) (assay: biochemical).
Sequence of ROCK2 (O75116 whole entry, species assumed): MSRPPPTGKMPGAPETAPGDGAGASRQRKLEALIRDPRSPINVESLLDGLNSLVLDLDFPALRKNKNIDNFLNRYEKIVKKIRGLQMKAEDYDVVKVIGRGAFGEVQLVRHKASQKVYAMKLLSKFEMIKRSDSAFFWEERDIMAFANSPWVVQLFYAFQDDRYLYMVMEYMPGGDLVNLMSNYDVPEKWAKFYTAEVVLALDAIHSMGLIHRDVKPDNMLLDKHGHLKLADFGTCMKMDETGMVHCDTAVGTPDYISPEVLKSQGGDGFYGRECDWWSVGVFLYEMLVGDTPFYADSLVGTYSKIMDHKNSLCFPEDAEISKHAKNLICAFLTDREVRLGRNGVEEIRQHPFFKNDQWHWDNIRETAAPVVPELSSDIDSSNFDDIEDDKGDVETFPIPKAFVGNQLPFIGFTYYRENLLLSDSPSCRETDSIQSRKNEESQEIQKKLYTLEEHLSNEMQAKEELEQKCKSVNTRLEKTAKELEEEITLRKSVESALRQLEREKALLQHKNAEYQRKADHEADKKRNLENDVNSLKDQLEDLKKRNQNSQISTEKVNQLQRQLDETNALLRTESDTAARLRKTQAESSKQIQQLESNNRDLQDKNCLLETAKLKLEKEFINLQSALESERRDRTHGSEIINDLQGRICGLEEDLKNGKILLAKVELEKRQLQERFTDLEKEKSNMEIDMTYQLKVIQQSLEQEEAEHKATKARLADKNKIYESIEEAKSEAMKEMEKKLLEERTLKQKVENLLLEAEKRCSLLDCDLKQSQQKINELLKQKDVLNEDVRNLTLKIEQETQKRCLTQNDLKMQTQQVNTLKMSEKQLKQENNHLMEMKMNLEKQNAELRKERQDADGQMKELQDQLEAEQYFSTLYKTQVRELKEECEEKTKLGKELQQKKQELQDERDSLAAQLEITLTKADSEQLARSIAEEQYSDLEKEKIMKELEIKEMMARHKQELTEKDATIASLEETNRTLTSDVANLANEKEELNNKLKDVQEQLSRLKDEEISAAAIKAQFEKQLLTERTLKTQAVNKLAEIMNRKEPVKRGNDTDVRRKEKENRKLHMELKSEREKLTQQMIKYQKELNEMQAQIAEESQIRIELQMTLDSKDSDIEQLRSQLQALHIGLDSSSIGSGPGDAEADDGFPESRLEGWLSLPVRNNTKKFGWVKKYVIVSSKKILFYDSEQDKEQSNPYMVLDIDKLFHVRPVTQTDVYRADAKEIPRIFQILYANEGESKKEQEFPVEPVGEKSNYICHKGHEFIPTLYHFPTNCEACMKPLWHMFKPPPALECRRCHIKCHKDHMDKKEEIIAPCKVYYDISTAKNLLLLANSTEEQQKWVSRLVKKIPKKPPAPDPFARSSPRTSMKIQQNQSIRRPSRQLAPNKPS
Compound `O=C1C(Nc2cccnc2)CCN1c1ccc(-c2cn[nH]c2)cc1` (stereo not drawn) [Example 9, 1-(4-(1H-pyrazol-4-yl)phenyl)-3-(pyridin-3-ylamino)pyrrolidin-2-one] has an IC50 of 10 to 100 nM.
With `COc1nc(N2CCC(N3CCN(S(C)(=O)=O)CC3)C2=O)ccc1-c1cn[nH]c1` (racemic) [Example 286, 1-(6-methoxy-5-(1H-pyrazol-4-yl)pyridin-2-yl)-3-(4-(methylsulfonyl)piperazin-1-yl)pyrrolidin-2-one] the IC50 was 100 to 2200 nM.
Work on `COc1cccc(NC2CCN(c3ccc(-c4cn[nH]c4)c(C(F)F)c3)C2=O)c1` (single isomer, unassigned) [Example 175, 1-(3-(difluoromethyl)-4-(1H-pyrazol-4-yl)phenyl)-3-((3-methoxyphenyl)amino) pyrrolidin-2-one] yielded an IC50 of 100 to 2200 nM.
For `O=C1C(Nc2cccc(OCC3CC3)c2)CCN1c1ccc(-c2cn[nH]c2)cn1` (single isomer, unassigned) [Example 319, 1-(5-(1H-pyrazol-4-yl)pyridin-2-yl)-3-((3-(cyclopropylmethoxy)phenyl)amino) pyrrolidin-2-one], the IC50 was 10 to 100 nM.
For `CCc1cc(N2CCC(Nc3cc(F)cc(OC)c3)C2=O)ccc1-c1cn[nH]c1` (single isomer, unassigned) [Example 246, 1-(3-ethyl-4-(1H-pyrazol-4-yl)phenyl)-3-((3-fluoro-5-methoxyphenyl)amino) pyrrolidin-2-one], the IC50 was < 10 nM.
`COc1cccc(NC2CCN(c3ccc(-c4cn[nH]c4)cc3)C2=O)c1C` (single isomer, unassigned) [Example 325, 1-(4-(1H-pyrazol-4-yl)phenyl)-3-((3-methoxy-2-methylphenyl)amino) pyrrolidin-2-one] showed an IC50 of 10 to 100 nM.
For `N#Cc1cccc(N[C@@H]2CCN(c3ccc(-c4cn[nH]c4)cc3)C2=O)c1` [Example 387, (R)-3-((1-(4-(1H-pyrazol-4-yl)phenyl)-2-oxopyrrolidin-3-yl)amino)benzonitrile], the IC50 was 10 to 100 nM.
Compound `COc1nc(N2CCC(Nc3ccc4c(c3)CS(=O)(=O)C4)C2=O)ccc1-c1cn[nH]c1` (racemic) [Example 263, 3-((2,2-dioxido-l,3-dihydrobenzo[c]thiophen-5-yl)amino)-1-(6-methoxy-5-(1H-pyrazol-4-yl)pyridin-2-yl)pyrrolidin-2-one] has an IC50 of 100 to 2200 nM.
With `COc1cc(F)cc(NC2CCN(c3ccc(-c4cn[nH]c4)c(C(F)F)c3)C2=O)c1` (single isomer, unassigned) [Example 177, 1-(3-(difluoromethyl)-4-(1H-pyrazol-4-yl)phenyl)-3-((3-fluoro-5-methoxyphenyl)amino)pyrrolidin-2-one] the IC50 was 100 to 2200 nM.
In the case of `COc1cc(F)cc(NC2CCN(c3ccc(-c4cn[nH]c4)c(Cl)c3)C2=O)c1` (single isomer, unassigned) [Example 158, 1-(3-chloro-4-(1H-pyrazol-4-yl)phenyl)-3 ((3-fluoro-5-methoxyphenyl)amino) pyrrolidin-2-one], the IC50 is reported as 100 to 2200 nM.
For `COc1cccc(NC2CCN(c3ccc(-c4cn[nH]c4)c(CO)c3)C2=O)c1` (racemic) [Example 187, 1-(3-(hydroxymethyl)-4-(1H-pyrazol-4-yl)phenyl)-3-((3-methoxyphenyl)amino) pyrrolidin-2-one], the IC50 was 100 to 2200 nM.
In the case of `COc1cc(NC2CCN(c3ccc(-c4cn[nH]c4)cc3)C2=O)ccc1F` (stereo not drawn) [Example 4, 1-(4-(1H-pyrazol-4-yl)phenyl)-3-((4-fluoro-3-methoxyphenyl)amino)pyrrolidin-2-one], the IC50 is reported as < 10 nM.
`COc1cc(NC2CCN(c3ccc(-c4cn[nH]c4)cn3)C2=O)ccc1F` (single isomer, unassigned) [Example 83, 1-(5-(1H-pyrazol-4-yl)pyridin-2-yl)-3-((4-fluoro-3-methoxyphenyl)amino)pyrrolidin-2-one] gave an IC50 of 10 to 100 nM.
`COc1nc(N2CCC(Nc3ccccc3F)C2=O)ccc1-c1cn[nH]c1` (racemic) [Example 224, 3-((2-fluorophenyl)amino)-1-(6-methoxy-5-(1H-pyrazol-4-yl)pyridin-2-yl)pyrrolidin-2-one] was tested, and the IC50 was < 10 nM.
In the case of `COc1cccc(NC2CCN(c3ccc(-c4ccnc(F)c4)c(OC)n3)C2=O)c1` (racemic) [Example 127, 1-(2′-fluoro-2-methoxy-[3,4′-bipyridin]-6-yl)-3-((3-methoxyphenyl)amino)pyrrolidin-2-one], the IC50 is reported as 10 to 100 nM.
`COc1ccc(NC2CCN(c3ccc(-c4cn[nH]c4)c(Cl)c3)C2=O)cc1F` (single isomer, unassigned) [Example 156, 1-(3-chloro-4-(1H-pyrazol-4-yl)phenyl)-3 ((3-fluoro-4-methoxyphenyl)amino) pyrrolidin-2-one] showed an IC50 of 100 to 2200 nM.
For `COc1cccc(NC2CCN(c3ccc(-c4ccnc5[nH]ccc45)c(C)n3)C2=O)c1` (single isomer, unassigned) [Example 119, 3-((3-methoxyphenyl)amino)-1-(6-methyl-5-(1H-pyrrolo[2,3-b]pyridin-4-yl)pyridin-2-yl)pyrrolidin-2-one], the IC50 was 100 to 2200 nM.
Work on `O=C1C(NCc2cccc(F)c2)CCN1c1ccc(-c2cn[nH]c2)cc1` (stereo not drawn) [Example 61, 1-(4-(1H-pyrazol-4-yl)phenyl)-3-((3-fluorobenzyl)amino)pyrrolidin-2-one, TFA] yielded an IC50 of 100 to 2200 nM.
`COc1nc(N2CCC(Nc3cc(C)nn3C)C2=O)ccc1-c1cn[nH]c1` (racemic) [Example 270, 3-((1,3-dimethyl-1H-pyrazol-5-yl)amino)-1-(6-methoxy-5-(1H-pyrazol-4-yl)pyridin-2-yl)pyrrolidin-2-one] was tested, and the IC50 was 10 to 100 nM.
`COc1nc(N2CCC(Nc3cccc(OC(F)F)c3)C2=O)ccc1-c1cn[nH]c1` (single isomer, unassigned) [Example 220, 3-((3-(difluoromethoxy)phenyl)amino)-1-(6-methoxy-5-(1H-pyrazol-4-yl)pyridin-2-yl)pyrrolidin-2-one] was tested, and the IC50 was < 10 nM.
Compound `COc1cccc(OC2CCN(c3ccc(-c4ccc5[nH]ncc5c4)c(OC)n3)C2=O)c1` (single isomer, unassigned) [Example 123, 1-(5-(1H-indazol-5-yl)-6-methoxypyridin-2-yl)-3-(3-methoxyphenoxy)pyrrolidin-2-one] has an IC50 of 100 to 2200 nM.
`COc1nc(N2CCC(Nc3nc(C(C)(C)C)cs3)C2=O)ccc1-c1cn[nH]c1` (racemic) [Example 269, 3-((4-(tert-butyl)thiazol-2-yl)amino)-1-(6-methoxy-5-(1H-pyrazol-4-yl)pyridin-2-yl)pyrrolidin-2-one] gave an IC50 of 100 to 2200 nM.
With `COc1cc(F)cc(NC2CCN(c3ccc(-c4cn[nH]c4)cc3Cl)C2=O)c1` (single isomer, unassigned) [Example 168, 1-(2-chloro-4-(1H-pyrazol-4-yl)phenyl)-3 ((3-fluoro-5-methoxyphenyl)amino) pyrrolidin-2-one] the IC50 was 100 to 2200 nM.
Work on `COc1nc(N2CCC(N3CCCC(F)C3)C2=O)ccc1-c1cn[nH]c1` (racemic) [Example 283, 3-(3-fluoropiperidin-1-yl)-1-(6-methoxy-5-(1H-pyrazol-4-yl)pyridin-2-yl)pyrrolidin-2-one hydrochloride] yielded an IC50 of 10 to 100 nM.
`O=C1C(Nc2cccc(OC(F)(F)F)c2)CCN1c1ccc(-c2cn[nH]c2)cc1` (stereo not drawn) [Example 8, 1-(4-(1H-pyrazol-4-yl)phenyl)-3-((3-(trifluoromethoxy)phenyl)amino)pyrrolidin-2-one] gave an IC50 of 10 to 100 nM.
`N#Cc1ccnc(NC2CCN(c3ccc(-c4cn[nH]c4)cc3)C2=O)c1` (stereo not drawn) [Example 116, 2-((1-(4-(1H-Pyrazol-4-yl)phenyl)-2-oxopyrrolidin-3-yl)amino)isonicotinonitrile] showed an IC50 of 10 to 100 nM.
For `COc1cc(NC2CCN(c3ccc(-c4cn[nH]c4)nc3)C2=O)ccc1F` (single isomer, unassigned) [Example 299, 1-(6-(1H-pyrazol-4-yl)pyridin-3-yl)-3-((4-fluoro-3-methoxyphenyl)amino)pyrrolidin-2-one], the IC50 was 10 to 100 nM.
`COc1cccc(NC2CCN(c3ccc(-c4cn[nH]c4)cc3)C2=O)n1` (racemic) [Example 223, 1-(4-(1H-pyrazol-4-yl)phenyl)-3-((6-methoxypyridin-2-yl)amino)pyrrolidin-2-one] was tested, and the IC50 was 10 to 100 nM.
`COc1nc(N2CCC(N3CCOc4ccccc43)C2=O)ccc1-c1cn[nH]c1` (single isomer, unassigned) [Example 229, 3-(2H-benzo[b][1,4]oxazin-4(3H)-yl)-1-(6-methoxy-5-(1H-pyrazol-4-yl)pyridin-2-yl)pyrrolidin-2-one] was tested, and the IC50 was 10 to 100 nM.
With `CCOc1cc(N2CCC(Nc3ccc(F)c(OC)c3)C2=O)ccc1-c1cn[nH]c1` (single isomer, unassigned) [Example 38, 1-(3-ethoxy-4-(1H-pyrazol-4-yl)phenyl)-3-((4-fluoro-3-methoxyphenyl)amino)pyrrolidin-2-one] the IC50 was 10 to 100 nM.
Work on `COc1cc(NC2CCN(c3ccc(-c4cn[nH]c4)c(OC)c3)C2=O)cc(OC)c1` (single isomer, unassigned) [Example 139, 3-((3,5-dimethoxyphenyl)amino)-1-(3-methoxy-4-(1H-pyrazol-4-yl)phenyl) pyrrolidin-2-one] yielded an IC50 of 100 to 2200 nM.
`O=C1C(Nc2cccc(OCC3CC3)c2)CCN1c1ccc(-c2cn[nH]c2)cc1` (stereo not drawn) [Example 11, 1-(4-(1H-pyrazol-4-yl)phenyl)-3-((3-(cyclopropylmethoxy)phenyl)amino)pyrrolidin-2-one] was tested, and the IC50 was < 10 nM.
`COc1cccc(NC2CCN(c3ccc(-c4cn[nH]c4)c(C#N)c3)C2=O)c1` (single isomer, unassigned) [Example 378, 5-(3-((3-methoxyphenyl)amino)-2-oxopyrrolidin-1-yl)-2-(1H-pyrazol-4-yl)benzonitrile] showed an IC50 of 10 to 100 nM.
`COCc1cc(N2CCC(Nc3cccc(OC)c3)C2=O)ccc1-c1cn[nH]c1` (single isomer, unassigned) [Example 183, 1-(3-(methoxymethyl)-4-(1H-pyrazol-4-yl)phenyl)-3-((3-methoxyphenyl)amino) pyrrolidin-2-one] showed an IC50 of 100 to 2200 nM.
In the case of `COc1cccc(NC2CCN(c3ccc(-c4cn[nH]c4)cc3)C2=O)c1` (single isomer, unassigned) [Example 28, 1-(4-(1H-pyrazol-4-yl)phenyl)-3-((3-methoxyphenyl)amino)pyrrolidin-2-one], the IC50 is reported as < 10 nM.
Work on `COc1cccc(C(=O)NC2CCN(c3ccc(-c4cn[nH]c4)cc3)C2=O)c1` (stereo not drawn) [Example 65, N-(1-(4-(1H-Pyrazol-4-yl)phenyl)-2-oxopyrrolidin-3-yl)-3-methoxybenzamide] yielded an IC50 of 100 to 2200 nM.

From patent US10112929B2, “Lactams as inhibitors of rock” (BRISTOL-MYERS SQUIBB COMPANY, priority 2015, dated 2018)
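Further: rho kinase enzyme reaction halted with EDTA, phospho- and non-phospho peptide separated for read-out, kinase activity inhibition derived across a dose-response series, DMSO under 2%.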
